This is an account of results in PubChem BioAssay (NCI).

Broadly, the TGI is the concentration giving total growth inhibition. As usually defined, the GI50 is the concentration that inhibits growth by half.

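Exposure lasted 48 hours, with cells grown in 96-well plates and compounds tested at five concentrations. GI50: concentration for 50% inhibition of growth. At the TGI there is no net growth.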

Some test systems named below: CAKI-1 renal; NCI-H226 lung; SR leukemia; RPMI-8226 leukemia; OVCAR-4 ovarian; SK-MEL-28 melanoma; SF-268 CNS; HCT-15 colon; CCRF-CEM leukemia; HCC-2998 colon.
Test in all cases: DTP human tumour cell line panel, 48 h

For the molecule `CC(C)=CCC1=C(OCC(=O)O)C(=O)c2ccccc2C1=O`, the total growth inhibition concentration (TGI) is above 100 µM in the test with CAKI-1 renal; 90.1 µM in the test with NCI-H226 lung; above 100 µM in the test on SR leukemia; above 100 µM in the test with RPMI-8226 leukemia; 99.1 µM in the test on OVCAR-4 ovarian; above 100 µM in the test on SK-MEL-28 melanoma. Moreover, the total growth inhibition concentration (TGI) was 65 µM in the test with SF-268 CNS, above 100 µM in the test on HCT-15 colon and 54.7 µM with CCRF-CEM leukemia.
Turning to `COC(=O)N/N=C(\C(=O)Nc1cccc([N+](=O)[O-])c1)c1nc2ccc([N+](=O)[O-])cc2[nH]c1=O`, the TGI in the test on NCI-H226 lung, in the test with HCC-2998 colon, with SR leukemia, in the test with RPMI-8226 leukemia, in the test with OVCAR-4 ovarian and in the test on SK-MEL-28 melanoma was above 100 µM in each case. Moreover, the concentration for total growth inhibition (TGI) with SF-268 CNS is 13.3 µM; in the test on CCRF-CEM leukemia it was above 100 µM.
Take `CC1(C)CCCC(C)(C2CCC3(C)C2C(O)CC2C4(C)CCC(O)C(C)(C)C4C(O)CC23C)O1` (centres undefined): the total growth inhibition concentration (TGI) in the test with CAKI-1 renal was determined as 17.6 µM; in the test with NCI-H226 lung, 40.1 µM; in the test with HCC-2998 colon it was 27.9 µM; in the test on SR leukemia, 86.1 µM; in the test with OVCAR-4 ovarian, 26 µM; with SK-MEL-28 melanoma, 28.2 µM. In addition, the TGI with SF-268 CNS was determined as 31.9 µM; in the test with HCT-15 colon, 24.7 µM; with CCRF-CEM leukemia, 8.67 µM.
For the molecule `CSc1ccc(OCC2OC2O)cc1` (centres undefined), the total growth inhibition concentration (TGI) is above 76.6 µM with CAKI-1 renal; above 100 µM in the test with NCI-H226 lung; above 100 µM with HCC-2998 colon; above 100 µM in the test on SR leukemia; 99.5 µM in the test on RPMI-8226 leukemia; above 100 µM in the test with OVCAR-4 ovarian. The total growth inhibition concentration (TGI) with HCT-15 colon is above 54.2 µM; with CCRF-CEM leukemia it was above 100 µM.
For `O=C(NNc1ccc(F)cc1)C1CCC(CNS(=O)(=O)c2ccc(Cl)c(Cl)c2)CC1` (centres undefined), the GI50 in the test on CAKI-1 renal is 2.87 µM; with NCI-H226 lung, 15.6 µM; with SR leukemia, 17 µM; in the test with RPMI-8226 leukemia, 3.36 µM; in the test on OVCAR-4 ovarian, 9.02 µM; with SK-MEL-28 melanoma it was above 50 µM. For the same molecule, the results for the GI50 in the test on SF-268 CNS, in the test with HCT-15 colon and in the test on CCRF-CEM leukemia were 4.76 µM, 7.63 µM and 16.1 µM, respectively. In addition, the TGI in the test on CAKI-1 renal was 28.1 µM; with NCI-H226 lung, above 50 µM; in the test with SR leukemia, above 50 µM; in the test on RPMI-8226 leukemia, 24.2 µM; in the test on OVCAR-4 ovarian, 47 µM; in the test with SK-MEL-28 melanoma, above 50 µM. Besides, the TGI in the test on SF-268 CNS, in the test on HCT-15 colon and with CCRF-CEM leukemia was above 50 µM throughout.
On to `CCC(C)[C@H](NC(=O)NC(=O)NC(=O)CI)C(=O)OC` (some centres undefined), for which the GI50 in the test with CAKI-1 renal is 1.41 µM; with NCI-H226 lung, 3.84 µM; in the test on HCC-2998 colon, 13.7 µM; in the test on SR leukemia, 1.37 µM; with RPMI-8226 leukemia it was 3.16 µM; in the test on OVCAR-4 ovarian it was 2.48 µM. The GI50 in the test with SK-MEL-28 melanoma is 13.6 µM; in the test on SF-268 CNS, 12.6 µM; in the test on HCT-15 colon it was 1.76 µM. Besides, the TGI in the test with CAKI-1 renal was found to be 2.78 µM; in the test on NCI-H226 lung it was 19.1 µM; in the test on HCC-2998 colon it was 26.9 µM; with SR leukemia, 4.15 µM; in the test on RPMI-8226 leukemia, 9.27 µM; in the test with OVCAR-4 ovarian, 8.68 µM. For the same molecule, the values for the concentration for total growth inhibition (TGI) in the test on SK-MEL-28 melanoma, in the test on SF-268 CNS and in the test with HCT-15 colon were 27.5 µM, 28.5 µM and 3.42 µM, respectively.
Consider `CC(C)(CCN=C(N)Nc1ccccn1)c1ccc(C(F)(F)F)cc1`, for which the GI50 in the test on NCI-H226 lung was 13.6 µM; with HCC-2998 colon, 15.1 µM; in the test on SR leukemia it was 15.1 µM; in the test on RPMI-8226 leukemia it was 6.58 µM; with OVCAR-4 ovarian, 11.8 µM; in the test on SK-MEL-28 melanoma, 15.8 µM. Also, the values for the GI50 in the test on SF-268 CNS, with HCT-15 colon and in the test on CCRF-CEM leukemia were 16.5 µM, 14.4 µM and 17.7 µM, respectively. Also, the total growth inhibition concentration (TGI) was 31.7 µM with NCI-H226 lung; 29.6 µM in the test with HCC-2998 colon; 32.9 µM in the test with SR leukemia; 26.7 µM with RPMI-8226 leukemia; 28.1 µM with OVCAR-4 ovarian; 30.6 µM in the test on SK-MEL-28 melanoma. The TGI was determined as 35.6 µM in the test on SF-268 CNS, 29.2 µM with HCT-15 colon and 58.4 µM in the test on CCRF-CEM leukemia.
Turning to `NCCCn1c2c(c3ccc([N+](=O)[O-])cc3c1=O)C(=O)c1cc(-c3ccccc3)ccc1-2`, the GI50 is 1.67 µM with CAKI-1 renal; 0.31 µM in the test on HCC-2998 colon; 0.183 µM in the test on SR leukemia; 0.348 µM in the test with RPMI-8226 leukemia; 0.399 µM with OVCAR-4 ovarian; 1.51 µM with SK-MEL-28 melanoma. Further, the GI50 in the test with HCT-15 colon was 0.187 µM; in the test on CCRF-CEM leukemia, 0.238 µM. Moreover, the total growth inhibition concentration (TGI) was 3.21 µM in the test on CAKI-1 renal; 1.27 µM in the test on HCC-2998 colon; 0.46 µM in the test on SR leukemia; 1.45 µM with RPMI-8226 leukemia; 1.62 µM in the test with OVCAR-4 ovarian; 3.13 µM with SK-MEL-28 melanoma. For the same molecule, the TGI in the test on HCT-15 colon amounted to 0.365 µM; with CCRF-CEM leukemia, 0.712 µM.
With `c1ccc(CN2CCC3(CC2)SSC2(CCN(Cc4ccccc4)CC2)SS3)cc1`, the total growth inhibition concentration (TGI) with CAKI-1 renal, in the test on NCI-H226 lung, in the test on HCC-2998 colon, with SR leukemia, in the test on RPMI-8226 leukemia and in the test on OVCAR-4 ovarian was above 100 µM each time. In addition, the total growth inhibition concentration (TGI) in the test on SK-MEL-28 melanoma, in the test on SF-268 CNS and with HCT-15 colon was above 100 µM each time.
Consider `COc1cc2oc(-c3ccc(O)cc3O)c(CC=C(C)C)c(=O)c2c(O)c1/C=C/C(C)C`, for which the TGI in the test with NCI-H226 lung was found to be 9.98 µM; in the test with HCC-2998 colon it was 4.6 µM; in the test on SR leukemia, 4.44 µM; in the test on RPMI-8226 leukemia, 8.73 µM; with OVCAR-4 ovarian, 8.44 µM; with SK-MEL-28 melanoma it was 13.9 µM. Also, the TGI with SF-268 CNS is 5.52 µM; in the test with HCT-15 colon it was 10.3 µM; in the test on CCRF-CEM leukemia, 5.07 µM.
`COc1ccc2c(c1)C1OCCNC1CC2` (centres undefined): the TGI in the test on CAKI-1 renal, in the test on NCI-H226 lung, in the test with SR leukemia, with RPMI-8226 leukemia, in the test on SK-MEL-28 melanoma and with SF-268 CNS was above 100 µM in each case. Besides, the TGI in the test with HCT-15 colon and in the test with CCRF-CEM leukemia was above 100 µM each time.
For the molecule `Cn1c(=O)c2ccc(-c3ccc(Br)cc3)nc2n(C)c1=O`, the concentration for total growth inhibition (TGI) in the test with NCI-H226 lung, in the test with HCC-2998 colon, with SR leukemia, in the test with RPMI-8226 leukemia, in the test with OVCAR-4 ovarian and in the test with SK-MEL-28 melanoma was above 100 µM in each case. Moreover, the concentration for total growth inhibition (TGI) in the test with SF-268 CNS, in the test on HCT-15 colon and with CCRF-CEM leukemia was above 100 µM each time.
